# From publication PMC11795524, “Melanin-Binding-Based Discovery of Topically Instilled Carbonic Anhydrase Inhibitors for Targeted Delivery and Prolonged Action in the Eye” (Molecular Pharmaceutics, 2025)
# What was measured:
# [1] = In vitro melanin binding by microscale thermophoresis / initial fluorescence (Monolith NT.115 pico); conditions: for Melanin binding classification: class by Kd; for Kd: melanin nanoparticles 0.5 mg/mL, IF or MST mode, 68% confidence, read-out: Kd ± confidence (melanin binding)
# Text: Melanin binding of the CAI-II compounds was studied with a Monolith NT.115 pico (NanoTemper Technologies GmbH, Munich, Germany) device using the method of […] et al. […] Otherwise, normalized fluorescence signals and the ratio of relative fluorescence after heating (MST mode) were used. The MST software was used in expert mode to allow heating for 30 s. […] As ligand autofluorescence may interfere with the assay, their autofluorescence values were pretested with the detector used in experiment (nanoblue or pico-red). Fluorescence of the ligand should be below 20% of melanin fluorescence. Sample aggregation and adsorption to the capillaries were used also as exclusion criteria.
# [2] = system: pigmented rabbits (Chinchilla Bastard); assay: IOP study in pigmented rabbits after single eye drop; assay type: in vivo, rabbit; conditions: for ratio (AUCpigm/AUCalbino) of IOP response: pigmented vs albino rabbits
# Experimental: (§1) Five 3–5 months old albino (New Zealand White, all females) and five 3–6 months old pigmented rabbits (Chinchilla Bastard, 1 male and 4 females) were purchased from Charles River Laboratories, UK and Germany, respectively. Prior to the experiments, the rabbits were habituated to handling, and the baseline values of IOP were measured. During the experiments, rabbits weighed 2.4–4.0 kg.
# (§2) First, stock solutions of CAIs (250 mg/mL) in dimethyl sulfoxide (Sigma-Aldrich, Germany) were prepared. These stock solutions were diluted with PBS (pH 7.4) to obtain 1 mg/mL (0.1%) or 10 mg/mL (1%) solutions.
# (§3) The CAI solutions were tested in albino rabbits (eye drops of 0.1, and 0.5 or 1.0%) and in pigmented rabbits (0.5 or 1.0%). The novel CAI concentrations in solutions were determined based on the drug solubility with the aim to load the highest possible drug concentration to the single eye drop.
# Baseline IOP of pigmented rabbits was raised with two intravitreal triamcinolone acetonide injections (Triesence 40 mg/mL, Novartis Finland Ltd.) with 1 week interval to each eye. This method[25],[26] may induce ocular hypertension even up to 60 days in rabbits.[25]
# The rabbits were anesthetized with 0.4 mg/kg, s.c. medetomidine (Domitor vet 1 mg/mL, Orion Pharma, Espoo, Finland) and 20 mg/kg s.c. ketamine (Ketaminol vet 50 mg/mL, Pfizer Oy Animal Health, Espoo, Finland). Mydriasis was induced with topical tropicamide eyedrops (Oftan Tropicamid 5 mg/mL, Santen Pharmaceutical Co., Ltd., Tampere, Finland) and the ocular surface was anesthetized with oxybuprocaine eye drop (Oftan Obucain 4 mg/mL, Santen Pharmaceutical Co., Ltd., Tampere, Finland). Thereafter, intravitreal injection of triamcinolone acetonide (100 μL) was given with a 31G needle and syringe. After injection, the eyes were moisturized with carbomer gel (Viscotears 2 mg/g, Dr. Gerhard Mann chem.-pharm. Fabrik GmbH, Berlin, Germany) and the anesthesia was antagonized with 1 mg/kg atipamezole s.c. (Antisedan vet 5 mg/mL, Orion Pharma, Espoo, Finland).
# After the second injection, IOP was allowed to settle for 10 days before the experiments were performed. […] Induction of ocular hypertension is presented in Appendix Figure 3. The IOP-lowering effects of the molecules were investigated sequentially, each test initiating once baseline IOP levels was attained.
# (§4) The IOP levels in the rabbits were measured with a tonometer (Tonometer Pro, Icare Finland Ltd.). After baseline IOP measurements, a single eye drop (25 μL) was applied to the left eye, whereas the right eye was not treated. After eye drop instillation, the eyelids were kept open manually for 1 min. The IOP was measured from both eyes of the rabbits at 0.5, 1, 2, 3, 4, 5, 6, 7, and 8 h after eye drop instillation. In the case of the pigmented rabbits, the measurements were continued until 10 h postinstillation, and further until the IOP had returned to the normal baseline.
# (§5) The CAIs were tested in the same rabbits to minimize interindividual data variation. Washout periods of at least 3 days were used between instillation of different compounds. The experiments started always at 8 a.m. to eliminate bias due to diurnal IOP fluctuation. At each time point, the pressure was measured three times with the same eye, and the average values were calculated and used in data analysis.
# [3] = system: albino rabbits (New Zealand White); assay: IOP study in albino rabbits after single eye drop; assay type: in vivo, rabbit; conditions: for AUC0-last ± SD in albino rabbits (IOP decrease vs time): single 25 μL eye drop, CAI 0.5 or 1.0%, dorzolamide 2%, n = 5
# Experimental: as §1
# as §2, with “solutions. Water-solubility of the compounds was enhanced with 2-hydroxypropyl-β-cyclodextrin (Sigma-Aldrich, Germany) (Table 1).” for “solutions.”
# as §3, §4, §5
# [4] = target: recombinant human carbonic anhydrase II; design: method as in earlier work; conditions: stopped flow kinetics protocol; read-out: Ki against hCA II; cited from earlier work
# albino rabbits [5] = system: albino rabbits; design: method as in PMID 1263134, PMID 955835; conditions: topical eye drops; cited from earlier work
# pigmented rabbits [6] = system: pigmented rabbits; design: method as in PMID 1263134, PMID 955835; conditions: topical eye drops; cited from earlier work
# pigmented rabbits [7] = system: pigmented rabbits; design: method as in PMID 37130851; conditions: intracameral injections; cited from earlier work
# [8] = topical, rabbits; cited from earlier work
# albino rabbits [9] = system: albino rabbits; design: method as in PMID 31515057, PMID 34274401; conditions: cited from earlier work
# albino rats = system: albino rats; design: method as in PMID 25481859; conditions: cited from earlier work
Compound,Melanin binding classification [1],Kd [1] [µM],ratio (AUCpigm/AUCalbino) of IOP response [2],AUC0-last ± SD in albino rabbits (IOP decrease vs time) [3] [mmHg x h],Ki [4] [nM],also measured
NS(=O)(=O)c1ccc(-n2ncc(N3CCCCCC3)cc2=O)cc1 [A12],intermediate (intermediate (65–650 μM)),176 ± 159,9.0,13.80 ± 10.06,0.06 ± 0.001,–
NS(=O)(=O)c1ccc(-n2ncc(N3CCOCC3)cc2=O)cc1 [A22],low (low binders (>650 μM)),–,8.4,10.50 ± 8.73,0.55 ± 0.01,"AUC0-last ± SD in pigmented rabbits (IOP decrease vs time) ([2]; hypertensive (triamcinolone) rabbits, single 25 μL eye drop, CAI 0.5 or 1.0%, dorzolamide 2%, n = 5): 88.10 ± 63.04 mmHg × h"
CN1[C@@H]2CC[C@H]1C[C@@H](OC(=O)C(CO)c1ccccc1)C2 (some centres unmarked) [Atropine],–,758 ± 848,–,–,–,duration of mydriatic effect (albino rabbits [5]): 43.5 h; duration of mydriatic effect (pigmented rabbits [6]): > 96 h
"Brc1c(NC2=NCCN2)ccc2nccnc12 [Brimonidine, reference compound]",high (high (<65 μM)),25,–,–,–,duration of IOP decrease (pigmented rabbits [7]): 7 days
CCN[C@H]1CN(CCCOC)S(=O)(=O)c2sc(S(N)(=O)=O)cc21 [Brinzolamide],–,–,–,–,–,absolute ocular bioavailability [8]: 0.10%
"CCN[C@H]1C[C@H](C)S(=O)(=O)c2sc(S(N)(=O)=O)cc21 [Dorzolamide, reference compound]",intermediate (intermediate (65–650 μM)),–,–,15.55 ± 10.64,–,"duration of IOP-responses (albino rabbits [9]): ~6 h; IOP reduction in normotensive pigmented rabbits ([2]; Chinchilla Bastard rabbits with normal (low) ocular pressure, before triamcinolone): no IOP reduction; duration of IOP decrease ([3]; albino rabbits, single eye drop (0.5–1% CAI, 2% dorzolamide)): < 8 h; duration of IOP-responses (albino rats): ~4 h"
